Experimental data published in ChEMBL document CHEMBL3232840, “Anti-proliferative activity of 2,6-dichloro-9- or 7-(ethoxycarbonylmethyl)-9H- or 7H-purines against several human solid tumour cell lines” (Eur J Med Chem, 2014).
pIC50: −log10 of the molar value.

Legend:
MCF7 [1] = assay: Antiproliferative activity against human MCF7 cells after 3 days by sulforhodamine-B colorimetric assay; format: functional, cell-based; conditions: MCF7, 72 h
HCT-116 [2] = assay: Antiproliferative activity against human HCT116 cells after 3 days by sulforhodamine-B colorimetric assay; format: functional, cell-based; conditions: HCT-116, 72 h
A-375 [3] = assay: Antiproliferative activity against human A375 cells after 3 days by sulforhodamine-B colorimetric assay; format: functional, cell-based; conditions: A-375, 72 h
[4] = Antiproliferative activity against human G361 cells after 3 days by sulforhodamine-B colorimetric assay; format: functional, cell-based; conditions: G-361, 72 h
MCF7 [5] = assay: Cell cycle arrest human MCF7 cells assessed as accumulation at G0/G1 phase at IC50 after 24 hrs by flow cytometry (reference value: 34.58 +/- 0.09 % ); format: functional
MCF7 [6] = assay: Cell cycle arrest human MCF7 cells assessed as accumulation at S phase at IC50 after 24 hrs by flow cytometry (reference value: 14.50 +/- 1.06 % ); format: functional
MCF7 [7] = assay: Cell cycle arrest human MCF7 cells assessed as accumulation at G2/M phase at IC50 after 24 hrs by flow cytometry (reference value: 50.91 +/- 1.15 % ); format: functional
HCT-116 [8] = assay: Cell cycle arrest human HCT116 cells assessed as accumulation at G0/G1 phase at IC50 after 24 hrs by flow cytometry (reference value: 44.70 +/- 0.38 % ); format: functional
HCT-116 [9] = assay: Cell cycle arrest human HCT116 cells assessed as accumulation at S phase at IC50 after 24 hrs by flow cytometry (reference value: 38.26 +/- 1.40 % ); format: functional
HCT-116 [10] = assay: Cell cycle arrest human HCT116 cells assessed as accumulation at G2/M phase at IC50 after 24 hrs by flow cytometry (reference value: 17.02 +/- 1.40 % ); format: functional
A-375 [11] = assay: Cell cycle arrest human A375 cells assessed as accumulation at G0/G1 phase at IC50 after 24 hrs by flow cytometry (reference value: 57.97 +/- 0.93 % ); format: functional
A-375 [12] = assay: Cell cycle arrest human A375 cells assessed as accumulation at S phase at IC50 after 24 hrs by flow cytometry (reference value: 29.60 +/- 0.78 % ); format: functional
A-375 [13] = assay: Cell cycle arrest human A375 cells assessed as accumulation at G2/M phase at IC50 after 24 hrs by flow cytometry (reference value: 12.42 +/- 0.70 % ); format: functional
MCF7 [14] = assay: Induction of apoptosis in human MCF7 cells at IC50 after 24 hrs by annexin V-FITC/PI-based flow cytometry (reference value: 10.80 +/- 0.85 % ); format: functional
HCT-116 [15] = assay: Induction of apoptosis in human HCT116 cells at IC50 after 24 hrs by annexin V-FITC/PI-based flow cytometry (reference value: 7.27 +/- 1.57 % ); format: functional
A-375 [16] = assay: Induction of apoptosis in human A375 cells at IC50 after 24 hrs by annexin V-FITC/PI-based flow cytometry (reference value: 6.83 +/- 0.40 % ); format: functional

pIC50 (MCF7 [1])	pIC50 (HCT-116 [2])	pIC50 (A-375 [3])	Structure (SMILES)	pIC50 [4]	Activity (MCF7 [5]) [%]	Activity (MCF7 [6]) [%]	Activity (MCF7 [7]) [%]	Activity (HCT-116 [8]) [%]	Activity (HCT-116 [9]) [%]	Activity (HCT-116 [10]) [%]	Activity (A-375 [11]) [%]	Activity (A-375 [12]) [%]	Activity (A-375 [13]) [%]	Activity (MCF7 [14]) [%]	Activity (HCT-116 [15]) [%]	Activity (A-375 [16]) [%]
4.45	5.28	4.72	CCOC(=O)Cn1cnc2c(Cl)ncnc21	4.67	–	–	–	–	–	–	–	–	–	–	–	–
4.52	4.65	4.29	CCOC(=O)Cn1c(=O)[nH]cc(F)c1=O	4.60	–	–	–	–	–	–	–	–	–	–	–	–
4.85	4.63	4.87	CCOC(=O)Cn1cnc2c(Br)ncnc21	4.80	–	–	–	–	–	–	–	–	–	–	–	–
4.60	4.61	4.42	CCOC(=O)Cn1cc(F)c(=O)[nH]c1=O	4.54	–	–	–	–	–	–	–	–	–	–	–	–
4.30	4.17	4.84	CCOC(=O)Cn1cnc2ncnc(Cl)c21	4.67	–	–	–	–	–	–	–	–	–	–	–	–
5.41	5.21	5.93	CCOC(=O)Cn1cnc2c(Cl)nc(Cl)nc21	5.51	28.17	15.39	54.63	45.93	36.75	17.31	58.48	28.78	12.73	20.53	20.2	35.37
5.25	5.20	5.30	CCOC(=O)Cn1cnc2nc(Cl)nc(Cl)c21	5.25	34.54	18.27	47.19	33.58	37.93	28.47	70.55	20.1	9.34	24.1	17.03	27.13
4.69	4.25	4.57	CCOC(=O)Cn1cnc2ncnc(Br)c21	4.74	–	–	–	–	–	–	–	–	–	–	–	–
